Measured values taken from US20190328900A1, “ANTIBODY-DRUG CONJUGATES AND THERAPEUTIC METHODS USING THE SAME” (priority 2016, published 2019).

Key:
[1] = tested on: pseudotyped virus (NL4-3 provirus with various HIV gp160 envelope clones); test: Pseudotyped virus assay (PSV), luciferase reporter, U373 cells expressing human CD4 and CXCR4 or CCR5; assay type: cell-based
Excerpt: A pseudotyped virus assay (PSV) was used to assess the potency of various HIV entry inhibitors. Replication defective virus was produced by co-transfection of a plasmid containing an NL4-3 provirus [containing a mutation in the envelope open reading frame (ORF) and a luciferase reporter gene replacing the nef ORF] and a CMV-promoter expression plasmid containing an ORF for various HIV gp160 envelope clones. The harvested virus was stored at −80C in small aliquots and the titer of the virus measured to produce a robust signal for antiviral assays.
The PSV assay was performed by using U373 cells stably transformed to express human CD4, the primary receptor for HIV entry and either human CXCR4 or human CCR5 which are the co-receptors required for HIV entry as target cells for infection. Molecules of interest (including, but not limited to small molecule inhibitors of HIV, neutralizing antibodies of HIV, antibody-drug conjugate inhibitors of HIV, peptide inhibitors of HIV, and various controls) were diluted into tissue culture media and diluted via serial dilution to create a dose range of concentrations. This dose-range was applied to U373 cells and the pre-made pseudotyped virus added. The amount of luciferase signal produced after 3 days of culture was used to reflect the level of pseudotyped virus infection.

[2] = tested on: HIV strains/subtypes; conditions: cited from earlier work

Molecule `O=C1Nc2ccc(Cl)cc2[C@@](C#CC2CC2)(C(F)(F)F)O1` [EFV, Efavirenz] has an IC50 ([1]; Human immunodeficiency virus 1, NL43, Table 14, first IC50 column (no further heading)) of 1.9 nM, an IC50 ([1]; Human immunodeficiency virus 1, NL43, Table 14, second IC50 column (no further heading)) of 1.53 nM and an IC50 ([1]; Human immunodeficiency virus 1, NL43, Table 14, third IC50 column (no further heading)) of 1.6 nM.
In the case of “VRC01: broadly neutralizing anti-HIV antibody (IgG1) binding gp120, expressed in CHO cells; SEQ ID NO:9-13”, the HIV strains/subtypes neutralized [2] is given as 90%.
